The source of these data is patent US7932264B2, “Sinomenine derivatives and preparation and uses thereof” (priority 2005, dated 2011).

The IC50 is the point on the concentration scale where inhibition reaches its midpoint. For orientation: inhibition means the relative decrease from the control value, in per cent.

Common to all, as to assay type: cell-based
The subject of test [1] is LPS-induced IL-1 production. Briefly: Inhibition of LPS-induced IL-1 production in human whole blood culture. The settings on record: LPS 10 ng/ml, 6 h; for IC50: human whole blood culture, IC50 by program calcdemo, read-out: IC50 to inhibit LPS-induced IL-1 production. How it is done:
(§1) Human blood sample (−20 ml) was taken from a peripheral venous (10 ml) of a healthy volunteer (20-50 years old, nonsmoker) using sterile endotoxin-free ethylenediaminetetraacetic (EDTA) tube and was immediately processed. The blood samples were divided into three different experimental conditions (groups): control, stimulating with LPS alone and LPS plus testing compound. Each group contained five blood samples from different individuals. In control group, 100 μl of whole blood sample were diluted with 900 μL of RPMI 1640 in 24 wells plate. In LPS only group or LPS plus testing compound group, 100 ul of whole blood were diluted with 1 μl testing compound or DMSO and 889 ul of RPMI 1640 (RPMI 1640 was consisted of 25 mM Hepes supplemented with 100 U/mL penicillin, 100 μg/mL streptomycin, 4 mM 1-glutamine, and 10% fetal calf serum) All samples from the three groups were incubated in 37° C. and 5% CO2 for 15 minutes, then 10 μl LPS (1 μg/ml) was added into these samples except samples of control group, and was kept in 37° C. and 5% CO2 for 6 h. The samples were placed on ice for 3 minutes and centrifuged for 10 min at 4° C. and 1500 g. The supernatants of the whole blood culture were taken and kept at −80° C. for analysis of TNF-α, IL-1, IL-6 and IL-8.
(§2) Since compounds #54 and #44 we obtained were mixed chemical isomers, these two compounds have been excluded from the IC50 experiments. […] concentrations of the compounds (#20, #33, #37, #39, and #48) were tested: 10^−9, 10^−8, 10^−7, 10^−6, 10^−5 and 10^−4 Molar/L. The parent compound, sinomenine, was used as a control. The IC50 was determined by program calcdemo.
The inhibition of tested compounds on LPS-induced IL-1 production was assessed using human IL-1βEnzyme Immunometric Assay Kit (Lot number 145020) from Cayman Chemical Company (MI, USA). The methods are briefly described according to the instructions supplied with the Kit. All reagents and solutions were supplied with the Kit:
1) Reagents and solutions were properly prepared for the experiments to determine bioactivity according to the instruction.
2) Standard solution provided with the Kit, blood sample with testing compound and blood sample with LPS alone which were prepared as above described, 50 ul for each of these solution or blood samples, was added to each well. Then, 10 μL of DTT, 5 μL of mouse serum and 100 μL of Fab′ were also added into each well together. The well was covered with the adhesive strip. Then those wells were incubated overnight at 4° C. A plate layout was provided to record standards and samples assayed. 3) Each well was washed by filling wash buffer (600 μL) using an autowasher. The liquid was completely removed at each step to ensure good performance. This process was repeated four times for a total of five washes. 4) 200 μL of Ellman's reagent was added to each well and the plate was covered with a piece of dark paper, incubated for 4 hours at room temperature with gentle shaking. 5) The optical density of each well was determined using a microplate reader set to 412 nm.
The blood samples were incubated in the presence of LPS (concentration: 10 ng/ml) for 6 h. The inhibition of Sinomenine (SIN) on LPS-induced IL-1 production was also examined. Because all tested compounds including SIN had no effect at concentration of 10^−9 on LPS-induced IL-1 production, the levels of LPS-induced IL-1 production at 10^−9 of tested compounds in the figures were equivalent to the levels of IL-1 in blood samples with LPS alone. […]

Test [2] has as its system LPS-induced TNF-α production. The test can be described thus: Inhibition of LPS-induced TNF-α production in human whole blood culture. As to conditions: LPS 10 ng/ml, 6 h; for IC50: IC50 by program calcdemo, read-out: IC50 to inhibit LPS-induced TNF-α production. As for the experimental part:
as §1
The samples from above described protocol were used to determine the release of TNF-α from whole blood culture induced by LPS stimulation and the inhibition by each of 22 tested compounds on the LPS-induced TNF-α production. The TNF-α production was assessed using human TNF-α Enzyme Immunometric Assay Kit (Lot. 235123) from R&D Systems (MN, USA), the detail methods are described as the instruction of the Kit. The concentration of LPS-induced TNF-α production in whole blood culture was 884.2±329.8 pg/ml. These 22 compounds were divided into three groups according to their inhibition potencies on the LPS-induced TNF-α production:
as §2
The blood samples were incubated in the presence of LPS (concentration. 10 ng/ml) for 6 h. Sinomenine (SIN) was used as control. Because all tested compounds including SIN had no effect at concentration of 10^−9 on LPS-induced TNF-α production, the levels of LPS-induced TNF-α production at 10^−9 of tested compounds in the figures were equivalent to the levels of TNF-α in blood samples with LPS alone. Data in panel a of the figures (a1-a6) present the absolute values of TNF-α; data in panel b (b1-b6) present the percentage inhibition of the tested compounds on LPS-induced TNF-α production. All data were Mean±SD (n=6).

The test system of test [3] is LPS-induced IL-8 production. The test can be described thus: Inhibition of LPS-induced IL-8 production in human whole blood culture. As to conditions: LPS 10 ng/ml, 6 h; for IC50: human whole blood culture, IC50 by program calcdemo, read-out: IC50 to inhibit LPS-induced IL-8 production. As for the experimental part:
as §1, §2
The inhibition of tested compounds on LPS-induced IL-8 production was assessed using human IL-8 Elisa Kit (Lot number 061302B) from Biosource (Carlsbad, Calif., USA). The methods are briefly described according to the instruction in the Kit as below, all reagents and solutions were supplied with the Kit:
(§3) 1) Reagents and solutions were properly prepared for the experiments to determine bioactivity according to the instruction of the Kit.
(§4) 2) Standard solution supplied with the Kit, blood sample with testing compound and blood sample with LPS alone was (50 μL of each item) added into per well. Then, 50 μL of Biotin Conjugate was also added to each well. The well was covered with the adhesive strip. Then those wells were incubated for 1.5 hours at room temperature. 3) Each well was aspirated and washed by filling wash buffer (600 μL) using an autowasher. The liquid was completely removed at each step to ensure good performance. This process was repeated three times for a total of four washes. 4) 100 μL of Streptavidin-HRP working solution was added to each well and the well was covered with a new adhesive strip, incubated for 30 min at room temperature. 5) The same aspiration and wash procedures were repeated as described in step 3. 6) 100 μL of Stabilized Chromogen was added to each well and incubated for 30 minutes at room temperature. These wells were protected from light. 7) 100 μL of Stop Solution was added to each well. 8) The optical density of each well was determined within 30 minutes using a microplate reader set to 450 nm.
The blood samples were incubated in the presence of LPS (concentration: 10 ng/ml) for 6 hours. The effects of sinomenine (SIN) on LPS-induced IL-8 production were also examined. […]

Test [4] deals with LPS-induced IL-6 production. Briefly: Inhibition of LPS-induced IL-6 production in human whole blood culture. As to conditions: LPS 10 ng/ml, 6 h; for IC50: human whole blood culture, IC50 by program calcdemo, read-out: IC50 to inhibit LPS-induced IL-6 production. As for the experimental part:
as §1, §2
The inhibition of tested compounds on LPS-induced IL-6 production was assessed using human IL-6 Elisa Kit (Lot number 054204D) from Biosource (Carlsbad, Calif., USA). The methods are briefly described according to the instruction in the Kit as below, all reagents and solutions were supplied with the Kit:
as §3
as §4, with “50 μL of standard” for “Standard”, “was” for “was (50 μL of each item)”, “added” for “added into”, “was” for “was also”, “2” for “1.5”
The blood samples were incubated in the presence of LPS (concentration: 10 ng/ml) for 6 h. The effects of sinomenine (SIN) on LPS-induced IL-6 production were also examined. […]

Turning to `COC1=CC2[C@@H]3Cc4ccc(OC)c(O)c4[C@]2(CCN3C)CC1=O` (stereo partly drawn) [Compound 1, sinomenine], the “effect on LPS-induced IL-1 production at concentration of 10^−9” value in test [1] (10^−9 mol/L) is “no effect”. Besides, in test [2] (10^−9 mol/L), the “effect on LPS-induced TNF-α production at concentration of 10^−9” value was “no effect”. Further, the “effect on LPS-induced IL-8 production at concentration of 10^−9” value in test [3] (10^−9 mol/L) is listed as “no effect”. Also, the IC50 is 74 µM in test [3] and 1700 µM in test [4]. The “effect on LPS-induced IL-6 production at concentration of 10^−9” value in test [4] (10^−9 mol/L) is reported as “no effect”.
On to `COC1=CC2[C@@H]3Cc4ccc(OC)c(O)c4[C@]2(CCN3C(=O)c2cc(C)cc(C)c2)CC1=O` (stereo partly drawn) [Compound 9], for which, in test [2] (compound 10^−5 mol/L, human whole blood culture, read-out: inhibition of LPS-induced TNF-α production compared to LPS alone), the inhibition at 10 µM is less than 30%.
With `COC(=O)c1cccc(C)c1S(=O)(=O)N1CC[C@@]23CC(=O)C(OC)=C[C@@H]2[C@@H]1Cc1ccc(OC)c(O)c13` [Compound 33], the IC50 is 100 µM in test [1], 4.4 µM in test [2] (human whole blood culture), 7300 µM in test [3] and 8.7 µM in test [4].
Take `COC1=C[C@@H]2[C@@H]3Cc4ccc(OC)c(O)c4[C@]2(CCN3C(=O)c2cccnc2)CC1=O` [Compound 37]: the IC50 was 8.8 µM in test [1], 420 µM in test [2] (human whole blood culture) and 7600 µM in test [3].
As for `COC1=C[C@@H]2[C@@H]3Cc4ccc(OC)c(O)c4[C@]2(CCN3C(=O)c2ccc(C)cc2)CC1=O` [Compound 39], the IC50 is 4900 µM in test [1], 13 µM in test [2] (human whole blood culture) and 5.3 µM in test [4].
In the case of `COc1ccc2c(c1OC)C13CCN(C)C(C2)C1CC=NN(S(=O)(=O)c1ccc(C)cc1)C(O)C3` (stereo not drawn) [Compound 48], the IC50 in test [1] is 9500 µM; in test [2] (human whole blood culture), 760 µM; in test [3], 3800 µM; in test [4] it was 1000 µM.
